Test results: article PMC8779255, “Determining the Anticancer Activity of Sphingosine Kinase Inhibitors Containing Heteroatoms in Their Tail Structure” (Pharmaceutics, 2022)

Key:
SK1 enzyme = biological target: T1, SK1 enzyme (Homo sapiens, UniProt Q9NYA1); test: SK activity assay (Adapta screening system); type: biochemical; settings: final concentration of 20 μM
T1 construct: purchased Thermo Fisher Scientific
Procedure: The effect of compounds in sphingosine kinase activity was examined using the […] screening system (Thermo Fisher Scientific System, Waltham, MA, USA). The kinase inhibition ability of compounds 1-11 along with RB005 was measured with final concentration of 20 μM. […] The data were presented as percentage inhibition of SK enzyme by individual compounds.

[1] = In vitro metabolic stability in liver microsomes; type: in vitro ADME, rat

T1 sequence (Q9NYA1 whole entry): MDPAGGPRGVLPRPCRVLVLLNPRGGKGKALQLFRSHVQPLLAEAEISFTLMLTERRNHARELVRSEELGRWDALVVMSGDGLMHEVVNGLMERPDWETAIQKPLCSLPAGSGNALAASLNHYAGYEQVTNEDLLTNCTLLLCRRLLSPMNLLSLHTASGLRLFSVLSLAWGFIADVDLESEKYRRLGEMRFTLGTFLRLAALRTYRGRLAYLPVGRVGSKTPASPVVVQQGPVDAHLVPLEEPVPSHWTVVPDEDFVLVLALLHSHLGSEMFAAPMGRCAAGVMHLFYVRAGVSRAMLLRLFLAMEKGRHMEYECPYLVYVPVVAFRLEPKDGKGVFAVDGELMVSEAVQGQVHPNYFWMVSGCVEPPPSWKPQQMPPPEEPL

CCCCCCCOc1ccc(CCN2CCN(CCO)CC2)cc1 [Compound 10, 2-(4-(4-(Heptyloxy)phenethyl)piperazin-1-yl)ethanol]
inhibition at 20 µM (SK1 enzyme): 20% | liver microsomal stability, Rat (%) ([1]; % remaining after 30 min, NADPH): 10.2% | liver microsomal stability (in words) ([1]; rat): unstable
